# Tests used:
# [1] = test system: human multiple myeloma cell lines OPM and RPMI; experiment: Apoptosis (annexin positive cells) in multiple myeloma cell lines; assay type: cell-based; settings: increasing concentrations
# Excerpt: (A) SHIP1 expression in human multiple myeloma (MM) cell lines as presented in the western blot analysis. SHIP is expressed in the human multiple myeloma cell lines U266, RPMI8226 and OPM2. The expression in the MM cell lines is shown relative to that observed in MG63 and HS-5 cell lines. MG63 is an osteosarcoma cell line, and HS-5 is a human bone marrow stroma cell line. […] Actin is provided as a control. (B) Results of MTT dye assays of MM cell lines. […] RUO is “relative units optical”. (C) Apoptosis in OPM and RPMI cell lines at increasing concentrations of 3α-aminocholestane.
# SHIP2 = target: T1, SHIP2 (Homo sapiens, UniProt O15357); experiment: Malachite Green phosphate release assay, SHIP2; assay type: biochemical; settings: at 1 mM
# T1 sequence (O15357 1-1258): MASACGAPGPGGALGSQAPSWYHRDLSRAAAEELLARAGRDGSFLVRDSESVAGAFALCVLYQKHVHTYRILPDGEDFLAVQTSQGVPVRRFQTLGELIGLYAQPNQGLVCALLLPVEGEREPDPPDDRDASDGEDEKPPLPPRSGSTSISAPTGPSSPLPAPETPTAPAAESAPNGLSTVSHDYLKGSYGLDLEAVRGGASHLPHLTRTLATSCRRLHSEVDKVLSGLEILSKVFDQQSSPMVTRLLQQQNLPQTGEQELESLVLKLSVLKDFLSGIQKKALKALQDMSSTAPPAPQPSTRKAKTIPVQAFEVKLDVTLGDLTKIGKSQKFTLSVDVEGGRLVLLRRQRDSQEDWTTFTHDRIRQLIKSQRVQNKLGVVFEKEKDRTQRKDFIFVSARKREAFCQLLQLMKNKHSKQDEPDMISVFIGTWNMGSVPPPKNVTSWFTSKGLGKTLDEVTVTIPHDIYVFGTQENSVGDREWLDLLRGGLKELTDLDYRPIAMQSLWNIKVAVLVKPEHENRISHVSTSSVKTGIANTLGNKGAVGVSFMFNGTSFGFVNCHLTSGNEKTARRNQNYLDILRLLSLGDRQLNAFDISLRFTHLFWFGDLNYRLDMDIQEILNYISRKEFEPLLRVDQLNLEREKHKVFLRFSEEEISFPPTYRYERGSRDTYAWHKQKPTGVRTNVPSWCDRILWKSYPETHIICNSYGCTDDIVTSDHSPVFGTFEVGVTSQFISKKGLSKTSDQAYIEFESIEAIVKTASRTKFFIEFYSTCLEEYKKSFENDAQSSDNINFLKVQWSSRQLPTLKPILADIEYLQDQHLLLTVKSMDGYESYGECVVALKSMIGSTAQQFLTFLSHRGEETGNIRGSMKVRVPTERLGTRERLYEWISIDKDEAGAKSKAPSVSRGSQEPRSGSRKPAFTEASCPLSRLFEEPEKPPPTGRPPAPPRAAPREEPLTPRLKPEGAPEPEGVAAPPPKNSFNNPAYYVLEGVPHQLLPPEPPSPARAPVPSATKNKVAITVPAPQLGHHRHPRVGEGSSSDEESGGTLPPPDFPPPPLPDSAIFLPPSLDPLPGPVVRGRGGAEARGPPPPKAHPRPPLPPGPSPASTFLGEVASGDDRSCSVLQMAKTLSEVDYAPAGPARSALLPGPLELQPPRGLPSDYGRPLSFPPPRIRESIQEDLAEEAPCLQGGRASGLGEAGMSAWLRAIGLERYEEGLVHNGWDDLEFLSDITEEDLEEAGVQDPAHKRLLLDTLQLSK
compound,measurement,setting,value
"CC(C)CCC[C@@H](C)[C@H]1CC[C@H]2[C@@H]3CC[C@H]4C[C@H](N)CC[C@]4(C)[C@H]3CC[C@]12C [NSC23922, (3R,5S,8R,9S,10S,13R,14S,17R)-10,13-dimethyl-17-[(2R)-6-methylheptan-2-yl]-2,3,4,5,6,7,8,9,11,12,14,15,16,17-tetradecahydro-1H-cyclopenta[a]phenanthren-3-amine]",apoptosis (percent annexin positive cells),[1],apoptosis occurs
same,inhibition of SHIP2 activity,SHIP2,fails to inhibit
